Measured values published in patent publication US12071596B2, “Metal working fluids biocide” (Dow Global Technologies LLC, priority 2021, dated 2024).

Tested on: mixed microbial inoculum
Assay: Microbial growth inhibition test (challenge test) in diluted metalworking fluid
Assay type: cell-based
Settings: 0.91 wt. % amine in diluted metalworking fluid, 30° C.; for Challenge Test Results 2nd dose Day 14: 2nd dosing 0.5 ml mixed inoculum, read at Day 14; for Challenge Test Results 3rd dose Day 21: 3rd dosing 1 ml mixed inoculum, read at Day 21; for Challenge Test Results 4th dose Day 28: 4th dosing 1 ml mixed inoculum, read at Day 28; for Challenge Test Results 5th dose Day 35: 5th dosing 3 ml mixed inoculum, read at Day 35; for Challenge Test Results 1st dose Day 7: 50 g sample, 1st dosing 0.5 ml mixed inoculum, read at Day 7
Protocol: Test 1—Microbial Growth Inhibition Test
To test the novel disclosed microbial growth control agent the diluted metal working fluid shown in Table 1 is mixed with the various ether amines listed in Table 2. Firstly, using 250 mL glass beaker to prepare 100 g the basic diluted metalworking fluid with the recipe in Table 1 except amine ingredient, stirring for getting clear solution. Repeating the first step to get 8 basic diluted metalworking fluid solutions. Secondly, adding every kind of amine or amine combination from Table 2 as comparative example 1-2 and example 1-6. Thirdly, 50 g the comparative example 1-2 and example 1-6 into 8 petri dishes with a diameter of 10 cm and dosed with 0.5 ml of mixed microbial inoculum. Measuring the microbial growth in the petri dishes after 7 days and repeating to dose the mixed microbial inoculum and measuring them in 5 times. For the first and second dosing, 0.5 ml mixed inoculum is used; in third and fourth dosing, 1 ml mixed inoculum is used; and in the fifth dosing, 3 ml mixed inoculum is used The MWF microbial inoculum was prepared by adding 0.1 mL of each bacterial overnight broth culture and 1.0 mL of each yeast broth culture to the 10 mL of mold suspension and blending. The microbial strains used in this experiment are listed in Table 3 below (8 bacteria, 2 molds and 2 fungi). These strains were cultivated separately in nutrient broth and then blend them together. The mixed strains were then injected into each tested MWF and amine sample and mixed well.
50 grams of each of the MWF treated with amine samples (e.g., Examples 1-5 and Comparative Examples 1-2) were dosed with 0.5 ml of mixed microbial inoculum on Day 0 of this experiment. This inoculation introduces around […] colony forming units per milliliter of sample, (CFU/ml) of microorganisms.
The mixed inoculated samples where then incubated at 30° C. to determine the biocidal effect of the tested amines on the microbes. After seven days, the number of microorganisms surviving in the petri dish was observed and if the colony growth was less than 10, it was considered as PASS. After measuring the number of surviving microorganisms, another round of dosing with the mixed microbial inoculum was complete. The step of observation and subsequent dosing was done 5 times to challenge the microbial growth inhibition capabilities of the tested examples. For the first and second dosing, 0.5 ml mixed inoculum was used; in third and fourth dosing, 1 ml mixed inoculum was used; and in the fifth dosing, 3 ml mixed inoculum is used.

Row | Structure (SMILES) | Challenge Test Results 2nd dose Day 14 | Challenge Test Results 3rd dose Day 21 | Challenge Test Results 4th dose Day 28 | Challenge Test Results 5th dose Day 35 | Challenge Test Results 1st dose Day 7
1 | CC(C)(N)CO [compound 2, 2-amino-2-methyl-1-propanol, reference compound] | Pass (if the colony growth was less than 10, it was considered as PASS) | Pass (if the colony growth was less than 10, it was considered as PASS) | Pass (if the colony growth was less than 10, it was considered as PASS) | Pass (if the colony growth was less than 10, it was considered as PASS) | Pass (if the colony growth was less than 10, it was considered as PASS)
2 | CCCCOCCN [Example 3, 2-butoxy-ethanamine] | Pass (if the colony growth was less than 10, it was considered as PASS) | Pass (if the colony growth was less than 10, it was considered as PASS) | Pass (if the colony growth was less than 10, it was considered as PASS) | Pass (if the colony growth was less than 10, it was considered as PASS) | Pass (if the colony growth was less than 10, it was considered as PASS)
3 | CCCOCC(C)OCC(C)N (centres unmarked) [Example 6, 1-(1-methyl-2-propoxyethoxy)-2-propanamine] | Pass (if the colony growth was less than 10, it was considered as PASS) | Pass (if the colony growth was less than 10, it was considered as PASS) | Pass (if the colony growth was less than 10, it was considered as PASS) | Pass (if the colony growth was less than 10, it was considered as PASS) | Pass (if the colony growth was less than 10, it was considered as PASS)
4 | COCC(C)N (centres unmarked) [Example 1, 1-methoxy-2-propanamine] | Pass (if the colony growth was less than 10, it was considered as PASS) | Pass (if the colony growth was less than 10, it was considered as PASS) | Pass (if the colony growth was less than 10, it was considered as PASS) | Pass (if the colony growth was less than 10, it was considered as PASS) | Pass (if the colony growth was less than 10, it was considered as PASS)
5 | CCCOCC(C)OCC(C)OCC(C)N (centres unmarked) [Example 4, 1-[1-methyl-2-(1-methyl-2-propoxyethoxy)ethoxy]-2-propanamine] | Pass (if the colony growth was less than 10, it was considered as PASS) | Pass (if the colony growth was less than 10, it was considered as PASS) | Pass (if the colony growth was less than 10, it was considered as PASS) | Pass (if the colony growth was less than 10, it was considered as PASS) | Pass (if the colony growth was less than 10, it was considered as PASS)
6 | CCCCOCC(C)N (centres unmarked) [Example 2, 1-butoxy-2-propanamine] | Pass (if the colony growth was less than 10, it was considered as PASS) | Pass (if the colony growth was less than 10, it was considered as PASS) | Pass (if the colony growth was less than 10, it was considered as PASS) | Pass (if the colony growth was less than 10, it was considered as PASS) | Pass (if the colony growth was less than 10, it was considered as PASS)
7 | CCCCOCC(C)OCC(C)N (centres unmarked) [Example 5, 2-propanamine, 1-(2-butoxy-1-methylethoxy)-] | Pass (if the colony growth was less than 10, it was considered as PASS) | Pass (if the colony growth was less than 10, it was considered as PASS) | Pass (if the colony growth was less than 10, it was considered as PASS) | Pass (if the colony growth was less than 10, it was considered as PASS) | Pass (if the colony growth was less than 10, it was considered as PASS)
